Laboratory results taken from patent US10799507B2, “5-(7H-pyrrolo[2,3-d]pyrimidin-4-yl)-5-azaspiro[2.5]octane-8-carboxylic acid derivatives as novel JAK kinase inhibitors” (LEO Pharma A/S, priority 2017, dated 2020).

Tests used:
[1] = molecular target: TYK2 (Homo sapiens (Human), UniProt P29597); test: JAK kinase assay (HTRF), TYK2; assay type: biochemical; details: catalytic domain, ATP at Km (13 μM)
Procedure, shortened: (§1)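 Catalytic-domain human kinases, GST-tagged TYK2 (aa 871-1187) and His-tagged JAK3, phosphorylate 1 μM TK Substrate-Biotin for 20-30 min at RT in 50 mM Hepes pH 7.0, 5 mM MgCl2, ATP at Km (TYK2 13 μM with 50 nM SEB; JAK3 2 μM). Phosphorylation detected by HTRF.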

[2] = molecular target: JAK1 (Homo sapiens (Human), UniProt P23458); test: JAK kinase assay (HTRF), JAK1; assay type: biochemical; details: catalytic domain, ATP at Km (7 μM)
Procedure, shortened: (§2)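 Catalytic-domain human JAK1 (GST-tagged, aa 850-1154) or His-tagged JAK2, baculovirus-expressed, phosphorylated 1 µM biotinylated TK peptide at Km ATP (JAK1 7 µM, 10 mM MgCl2, 50 nM SEB; JAK2 4 µM, 5 mM MgCl2) in pH 7.0 Hepes, 20-30 min RT. EDTA stop; overnight streptavidin-XL665/cryptate HTRF read.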

[3] = molecular target: JAK2 (Homo sapiens (Human), UniProt O60674); test: JAK kinase assay (HTRF), JAK2; assay type: biochemical; details: catalytic domain, ATP at Km (4 μM)
Procedure, shortened: as §2

[4] = in vitro metabolic stability in human liver microsomes; assay type: in vitro ADME; details: human, liver microsomes, 0.5 μM compound, 0.5 mg/mL microsomes, NADPH, 40 min, 37° C.; read-out: Human liver microsome Clapp (apparent intrinsic clearance)
Method: To assess the in vitro metabolic stability, the compounds (0.5 μM) were incubated in duplicates with human liver microsomes (0.5 mg/mL) in phosphate buffer and NADPH, in 96-well plates for 40 min (37° C.), using a liquid handling robot (Hamilton Microlab Star). Sample aliquots were taken at 0, 5, 10, 20 and 40 min, and dispensed into cold acetonitrile, in order to stop the reactions. The plates were centrifuged for 30 minutes before the samples were analyzed using liquid chromatography coupled to a time-of-flight mass spectrometer (AB Sciex API5600). The compound depletion over time was used to estimate the elimination rate constant, from which the apparent intrinsic clearance, Clapp, was calculated and the values are listed in Table 2.

[5] = molecular target: JAK3 (Homo sapiens (Human), UniProt P52333); test: JAK kinase assay (HTRF), JAK3; assay type: biochemical; details: catalytic domain, ATP at Km (2 μM)
Procedure, shortened: as §1

Chain of JAK2 (O60674 849-1124): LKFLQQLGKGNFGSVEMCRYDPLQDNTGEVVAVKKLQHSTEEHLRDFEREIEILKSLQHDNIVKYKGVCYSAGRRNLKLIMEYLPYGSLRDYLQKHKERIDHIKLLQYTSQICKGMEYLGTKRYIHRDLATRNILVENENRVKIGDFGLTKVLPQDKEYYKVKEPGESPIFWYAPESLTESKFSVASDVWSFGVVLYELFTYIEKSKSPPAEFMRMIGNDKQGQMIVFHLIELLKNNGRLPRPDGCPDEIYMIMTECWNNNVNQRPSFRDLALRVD
Chain of JAK3 (P52333 822-1111): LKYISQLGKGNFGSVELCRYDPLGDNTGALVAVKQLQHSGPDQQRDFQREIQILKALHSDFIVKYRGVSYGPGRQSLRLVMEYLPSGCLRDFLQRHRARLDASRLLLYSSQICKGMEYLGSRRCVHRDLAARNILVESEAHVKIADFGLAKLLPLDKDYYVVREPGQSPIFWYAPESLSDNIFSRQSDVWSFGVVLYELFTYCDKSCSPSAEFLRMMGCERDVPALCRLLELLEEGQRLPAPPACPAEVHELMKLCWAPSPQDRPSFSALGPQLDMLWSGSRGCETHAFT
Chain of TYK2 (P29597 871-1187): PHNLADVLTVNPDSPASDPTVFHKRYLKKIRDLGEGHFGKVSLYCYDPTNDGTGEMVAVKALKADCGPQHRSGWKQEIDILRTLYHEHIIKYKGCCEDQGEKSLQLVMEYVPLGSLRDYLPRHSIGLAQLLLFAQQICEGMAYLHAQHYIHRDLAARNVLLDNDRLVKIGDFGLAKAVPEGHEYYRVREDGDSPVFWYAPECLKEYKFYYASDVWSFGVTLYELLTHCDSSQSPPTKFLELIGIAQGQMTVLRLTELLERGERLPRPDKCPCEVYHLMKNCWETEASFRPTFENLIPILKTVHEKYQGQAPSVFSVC
Chain of JAK1 (P23458 850-1154): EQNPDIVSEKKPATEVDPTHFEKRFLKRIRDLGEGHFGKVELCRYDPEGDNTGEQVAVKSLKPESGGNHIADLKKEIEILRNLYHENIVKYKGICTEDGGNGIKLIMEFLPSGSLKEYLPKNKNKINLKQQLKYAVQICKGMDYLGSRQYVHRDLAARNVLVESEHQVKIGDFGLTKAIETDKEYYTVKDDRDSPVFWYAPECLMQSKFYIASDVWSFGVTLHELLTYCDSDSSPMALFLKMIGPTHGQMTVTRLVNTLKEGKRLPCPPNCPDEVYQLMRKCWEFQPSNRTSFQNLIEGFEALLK

Row | SMILES | EC50 [1] | EC50 [2] | EC50 [3] | CLint scaled at 0.5 μM [4] | EC50 [5]
1 | N#Cc1ccc(CNC(=O)[C@H]2CCN(c3ncnc4[nH]ccc34)CC23CC3)cc1 [Example 13, (8S)-N-[(4-cyanophenyl)methyl]-5-(7H-pyrrolo[2,3-d]pyrimidin-4-yl)-5-azaspiro[2.5]octane-8-carboxamide] | 81.1 nM | 0.9 nM | 6.1 nM | 82 mL/min/kg | 8.9 nM
2 | C[C@H](NC(=O)[C@H]1CCN(c2ncnc3[nH]ccc23)CC12CC2)[C@@H](O)C1CCCC1 [Example 5, (8S)-N-[(1S,2S)-2-cyclopentyl-2-hydroxy-1-methyl-ethyl]-5-(7H-pyrrolo[2,3-d]pyrimidin-4-yl)-5-azaspiro[2.5]octane-8-carboxamide] | 6.3 nM | 0.6 nM | 1.1 nM | > 200 mL/min/kg | 2.3 nM
3 | N#Cc1ccc([C@@H](O)CNC(=O)[C@H]2CCN(c3ncnc4[nH]ccc34)CC23CC3)cc1 [Example 29, (8S)-N-[(2R)-2-(4-cyanophenyl)-2-hydroxy-ethyl]-5-(7H-pyrrolo[2,3-d]pyrimidin-4-yl)-5-azaspiro[2.5]octane-8-carboxamide] | 40.4 nM | 1.4 nM | 2.9 nM | 115 mL/min/kg | 6.5 nM
4 | O=C(OCC1(CO)CC(F)(F)C1)[C@H]1CCN(c2ncnc3[nH]ccc23)CC12CC2 [Example 160, [3,3-difluoro-1-(hydroxymethyl)cyclobutyl]methyl (8S)-5-(7H-pyrrolo[2,3-d]pyrimidin-4-yl)-5-azaspiro[2.5]octane-8-carboxylate] | 3.7 nM | 0.3 nM | 0.8 nM | 121 mL/min/kg | 1.8 nM
5 | C[C@H](NC(=O)[C@H]1CCN(c2ncnc3[nH]ccc23)CC12CC2)[C@@H](O)c1ccc(F)cn1 [Example 41, (8S)-N-[(1S,2R)-2-(5-fluoro-2-pyridyl)-2-hydroxy-1-methyl-ethyl]-5-(7H-pyrrolo[2,3-d]pyrimidin-4-yl)-5-azaspiro[2.5]octane-8-carboxamide] | 33.5 nM | 2.5 nM | 5 nM | 166 mL/min/kg | 48.9 nM
6 | C[C@@H](NC(=O)C1CCN(c2ncnc3[nH]ccc23)CC12CC2)c1ccc(C#N)cc1 (stereo partly drawn) [Example 111, N-[(1R)-1-(4-cyanophenyl)ethyl]-5-(7H-pyrrolo[2,3-d]pyrimidin-4-yl)-5-azaspiro[2.5]octane-8-carboxamide] | 930 nM | 11.2 nM | 52.1 nM | 111 mL/min/kg | 123 nM
7 | N#Cc1ccc([C@H](CO)NC(=O)[C@H]2CCN(c3ncnc4[nH]ccc34)CC23CC3)cc1 [Example 18, (8S)-N-[(1R)-1-(4-cyanophenyl)-2-hydroxy-ethyl]-5-(7H-pyrrolo[2,3-d]pyrimidin-4-yl)-5-azaspiro[2.5]octane-8-carboxamide] | 45.5 nM | 1 nM | 3.5 nM | 44 mL/min/kg | 7.5 nM
8 | O=C(NCC1CCCC1)C1CCN(c2ncnc3[nH]ccc23)CC12CC2 (centres unmarked) [Example 82, N-(cyclopentylmethyl)-5-(7H-pyrrolo[2,3-d]pyrimidin-4-yl)-5-azaspiro[2.5]octane-8-carboxamide] | 400 nM | 6.8 nM | 11.5 nM | 198 mL/min/kg | 38.7 nM
9 | O=C(NC[C@@H](O)C1CCCCC1)[C@H]1CCN(c2ncnc3[nH]ccc23)CC12CC2 [Example 4, (8S)-N-[(2S)-2-cyclohexyl-2-hydroxy-ethyl]-5-(7H-pyrrolo[2,3-d]pyrimidin-4-yl)-5-azaspiro[2.5]octane-8-carboxamide] | 4 nM | 0.5 nM | 1.2 nM | > 200 mL/min/kg | 3.4 nM
10 | Cc1cc(C#N)ccc1[C@H](CO)NC(=O)[C@H]1CCN(c2ncnc3[nH]ccc23)CC12CC2 [Example 37, (8S)-N-[(1R)-1-(4-cyano-2-methyl-phenyl)-2-hydroxy-ethyl]-5-(7H-pyrrolo[2,3-d]pyrimidin-4-yl)-5-azaspiro[2.5]octane-8-carboxamide] | 102 nM | 2 nM | 10.2 nM | 91 mL/min/kg | 36.4 nM
11 | N#Cc1ccc([C@H](O)CNC(=O)[C@H]2CCN(c3ncnc4[nH]ccc34)CC23CC3)cc1 [Example 8, (8S)-N-[(2S)-2-(4-cyanophenyl)-2-hydroxy-ethyl]-5-(7H-pyrrolo[2,3-d]pyrimidin-4-yl)-5-azaspiro[2.5]octane-8-carboxamide] | 17.7 nM | 0.6 nM | 2.7 nM | > 200 mL/min/kg | 4.9 nM
12 | N#Cc1ccc(CNC(=O)C2CCN(c3ncnc4[nH]ccc34)CC23CC3)nc1 (centres unmarked) [Example 76, N-[(5-cyano-2-pyridyl)methyl]-5-(7H-pyrrolo[2,3-d]pyrimidin-4-yl)-5-azaspiro[2.5]octane-8-carboxamide] | – | 6.2 nM | 43.3 nM | 139 mL/min/kg | 53.6 nM
13 | O=C(OCC1(CO)CCCCC1)[C@H]1CCN(c2ncnc3[nH]ccc23)CC12CC2 [Example 161, [1-(hydroxymethyl)cyclohexyl]methyl (8S)-5-(7H-pyrrolo[2,3-d]pyrimidin-4-yl)-5-azaspiro[2.5]octane-8-carboxylate] | – | – | – | > 200 mL/min/kg | –
14 | O=C(N[C@H](CO)C(=O)OCC1(CO)CC1)[C@H]1CCN(c2ncnc3[nH]ccc23)CC12CC2 [Example 116, [1-(hydroxymethyl)cyclopropyl]methyl (2R)-3-hydroxy-2-[[(8S)-5-(7H-pyrrolo[2,3-d]pyrimidin-4-yl)-5-azaspiro[2.5]octane-8-carbonyl]amino]propanoate] | 210 nM | 12.4 nM | 24.7 nM | – | 47.8 nM
15 | C[C@H](NC(=O)[C@H]1CCN(c2ncnc3[nH]ccc23)CC12CC2)[C@H](O)c1ccc(C#N)cc1 [Example 126, (8S)-N-[(1S,2R)-2-(4-cyanophenyl)-2-hydroxy-1-methyl-ethyl]-5-(7H-pyrrolo[2,3-d]pyrimidin-4-yl)-5-azaspiro[2.5]octane-8-carboxamide] | 987 nM | 19.5 nM | 25.7 nM | – | 29.8 nM
16 | C[C@@H](NC(=O)[C@H]1CCN(c2ncnc3[nH]ccc23)CC12CC2)c1ccc(C#N)cc1F [Example 101, (8S)-N-[(1R)-1-(4-cyano-2-fluoro-phenyl)ethyl]-5-(7H-pyrrolo[2,3-d]pyrimidin-4-yl)-5-azaspiro[2.5]octane-8-carboxamide] | 516 nM | 9.3 nM | 72.8 nM | – | 157 nM
17 | N#Cc1cccc([C@H](CO)NC(=O)[C@H]2CCN(c3ncnc4[nH]ccc34)CC23CC3)c1 [Example 67, (8S)-N-[(1R)-1-(3-cyanophenyl)-2-hydroxy-ethyl]-5-(7H-pyrrolo[2,3-d]pyrimidin-4-yl)-5-azaspiro[2.5]octane-8-carboxamide] | 45 nM | 5.1 nM | 5.2 nM | – | 13.8 nM
18 | N#Cc1ccc([C@H](CO)NC(=O)[C@H]2CCN(c3ncnc4[nH]ccc34)CC23CC3)nc1 [Example 47, (8S)-N-[(1R)-1-(5-cyano-2-pyridyl)-2-hydroxy-ethyl]-5-(7H-pyrrolo[2,3-d]pyrimidin-4-yl)-5-azaspiro[2.5]octane-8-carboxamide] | 176 nM | 3.1 nM | 13.7 nM | – | 32.4 nM
19 | O=C(N[C@@H](CO)c1ccccn1)[C@H]1CCN(c2ncnc3[nH]ccc23)CC12CC2 [Example 122, (8S)-N-[(1R)-2-hydroxy-1-(2-pyridyl)ethyl]-5-(7H-pyrrolo[2,3-d]pyrimidin-4-yl)-5-azaspiro[2.5]octane-8-carboxamide] | 203 nM | 16.3 nM | 37.3 nM | – | 153 nM
20 | O=C(N[C@H](CO)C(=O)OCc1ccccc1)[C@H]1CCN(c2ncnc3[nH]ccc23)CC12CC2 [Example 80, benzyl (2R)-3-hydroxy-2-[[(8S)-5-(7H-pyrrolo[2,3-d]pyrimidin-4-yl)-5-azaspiro[2.5]octane-8-carbonyl]amino]propanoate] | 119 nM | 6.7 nM | 21.8 nM | – | 24.3 nM
21 | C[C@H](NC(=O)[C@H]1CCN(c2ncnc3[nH]ccc23)CC12CC2)[C@H](O)c1ccc(F)cn1 [Example 107, (8S)-N-[(1S,2S)-2-(5-fluoro-2-pyridyl)-2-hydroxy-1-methyl-ethyl]-5-(7H-pyrrolo[2,3-d]pyrimidin-4-yl)-5-azaspiro[2.5]octane-8-carboxamide] | 125 nM | 10.3 nM | 14.5 nM | – | 57.7 nM
